Measurements: patent US20250228869A1, “Benzodiazepine Pyrazolo Carboxamides as N-protein Inhibitors” (Pfizer Inc., priority 2024, published 2025)
Marks after values point to notes of the source that are not given here.

Key:
RSV A2 = test: RSV plaque reduction assay in HepG2 cells; format: cell-based; conditions: human respiratory syncytial virus, HepG2, read-out: RSV A2 plaque, HepG2, EC50 (nM)
From the text: The RSV plaque reduction assay is an infectivity assay which allows quantification of the number of infectious units in a distinct foci of RSV infection. As each plaque originates from a single infectious virus particle an accurate calculation of the anti-viral effect can be obtained by counting plaques in the presence and absence of an anti-viral compound. HepG2 cells (ECACC: 85011430) were passaged in flasks and seeded in 24-well plates in DMEM containing antibiotics and supplemented with 10% FBS. During inoculation and subsequent incubation, cells were cultured in DMEM containing 2% FBS. 100 plaque forming unit (PFU)/well of RSV (RSV A2 VR-1540) was mixed with serial dilutions of compound. Subsequently, 100 μL of the virus/compound mixtures was added to confluent HepG2 cell monolayers. Plates were incubated at 37° C. in a humidified 5% CO2 incubator for 2 hrs. The inoculum was then removed and 1 ml of overlay (4% CMC in 2% DMEM) was added to each well. Cells were cultured for 48 h at 37° C. in a humidified 5% CO2 incubator and then fixed with 75% acetone-25% methanol solution. Plates were washed under running water and blocking solution (2% skimmed milk powder in PBS-Tween) was added to each well and plates incubated on a shaker for 1 h at 37° C. […]

[1] = In vitro bone marrow assay; format: cell-based; conditions: primary human bone marrow mononuclear cells, 5 days exposure, total cell count, read-out: Human Bone Marrow Tox IC50
Experimental: In vitro bone marrow assay—Chen, W., et al., J. Pharmacokinetics and Pharmacodynamics, 2020, 47, 163-182.
Primary human bone marrow mononuclear cells (Lonza) were cultured in stemline II hematopoietic stem cell expansion medium (Sigma Aldrich), supplemented with 5% FBS and under induction by the following cytokines (R&D Systems): 25 ng/mL stem cell factor (SCF), ng/mL G-CSF, 10 ng/mL granulocyte macrophage-colony stimulating factor, 3 U/mL erythropoietin (EPO), 15 ng/mL thrombopoietin (TPO), 10 ng/mL IL3, 10 ng/mL IL6, and ng/mL Flt3 ligand. Cell cultures were maintained in the 37° C., 5% CO2, and 98% humidity incubator (see reference for further details). Cells were preincubated for 1 day and were then exposed to either DMSO or compound for 5 additional days. Cell counts were determined manually using a hemocytometer from 10 μL aliquots and converted to the total cell number by adjusting for the volume of the cell culture medium in each well. While the total cell count included myeloid, erythroid, and megakaryocytic lineages, neutrophil precursors comprised the majority of the total cell population given the stimulatory conditions of the cell culture. […]

[2] = Shake flask determination of distribution coefficient (log D); format: physicochemical; conditions: 1-octanol / phosphate buffer
Experimental: Shake flask method of determining log D—Miniaturized version of log D assay described in Stopher, D. and McClean, S. J. Pharm. Pharmacol. 1990, 42, 144.
Nadolol, mexiletine, propranolol, quinidine, amitriptyline, and chlorproazine were dissolved in DMSO to a concentration of 10 mM and used as controls in each plate. D-neo-Inositol, 5-[[(2E)-3-[4-[[(5E)-5-[[(3-chloro-2,6-difluorophenyl)methoxy]imino]-5,6-dideoxy-β-D-arabino-hexofuranosyl]oxy]-3-hydroxyphenyl]-2-methyl-1-oxo-2-propenyl]amino]-5-deoxy-1,2-O-methylene-(9Cl) (CAS 247598-17) is used as an Internal Standard (IS).
All liquid handling steps were performed by a Biomek FX. Buffer-saturated 1-octanol (149 μL/well) was added to duplicate 1 mL capacity 96-well plates. Test compounds (10 mM in DMSO; 2 μL/well) and controls (10 mM in DMSO; 2 μL/well) were transferred from Matrix 2D barcoded storage tubes to the 96-well plates.
Following the addition of 1-octanol saturated phosphate buffer (149 μL/well), the plates were sealed with silicone well cap-mats. […]
Samples were analyzed by micro-flow reversed-phase liquid chromatography coupled to tandem mass spectrometry (μfLC-MS/MS). […]
Peak areas were corrected by dilution factors and incorporating internal standard, and the ratio of the corrected peak areas were used to calculate the results (log D value). The log D value for each compound was calculated using the following equation: […]

[3] = Relay method using human hepatocytes (clearance); format: in vitro ADME; conditions: human hepatocytes incubations under relay conditions
From the text: Relay Method Using Human Hepatocytes—Di, L., et al., Drug Metabolism and Disposition, 2012, 40, 1860-1865.
Pooled cryopreserved human hepatocytes of 10 donors were purchased from Celsis IVT (Baltimore, MD). This lot of pooled hepatocytes was used for all the studies. When selecting new lots of hepatocytes, enzyme activities need to be verified using marker compounds. Upon thawing, the hepatocytes were resuspended in Williams' medium E (custom formula number 91-5233EC; Invitrogen, Grand Island, NY) supplemented with HEPES and Na2CO3. The cells were counted using the trypan blue exclusion method, and the 24-well hepatocyte plates containing 0.5 million cells/ml were spiked with a compound at a final concentration of 1 μM (dimethyl sulfoxide, final concentration 0.025%; methanol, final concentration 0.125%), in a final incubation volume of 0.50 ml. […]
The LC mobile phases were as follows: (A) HPLC grade water containing 0.1% formic acid, and (B) acetonitrile containing 0.1% formic acid. […] Terfenadine was used as an internal standard for LC-MS/MS quantification in positive ion multiple reaction monitoring mode. All of the test compounds had good linearity with R^2>0.99, and the limit of quantitation was 1 nM for all of the compounds.
Human in vitro intrinsic clearance was calculated using methods as previously described in the reference above.

RSV = conditions: Antimicrobial Agents and Chemotherapy 2007 (Chapman et al); cited from earlier work

Compound `CCS(=O)(=O)c1ccc(-c2nn3c(c2C(=O)N[C@H]2N=C(c4ccccc4)c4cccc(F)c4NC2=O)OCC(C)(C)C3)c(F)c1` [Example 2, (S)-2-(4-(ethylsulfonyl)-2-fluorophenyl)-N-(9-fluoro-2-oxo-5-phenyl-2,3-dihydro-1H-benzo[e][1,4]diazepin-3-yl)-6,6-dimethyl-6,7-dihydro-5H-pyrazolo[5,1-b][1,3]oxazine-3-carboxamide] has an EC50 (RSV A2) of 3.5 nM, an IC50 at 5 days [1] greater than 40000 nM and a logD [2] of 3. The “Human Hepatocyte CLint,app (mL/min/million)” value [3] was <0.14* mL/min/million.
For `O=C(Nc1ccccc1F)N[C@H]1N=C(c2ccccc2)c2ccccc2NC1=O` [RSV604], the anti-RSV activity (RSV) is given as “sub-micromolar”.
